From US20260049105A1, “SELECTIVE MC4R LIGAND FOR TREATING OBESITY AND COGNITIVE LOSS” (ARIZONA BOARD OF REGENTS ON BEHALF OF THE UNIVERSITY OF …, priority 2022, published 2026) come the findings set out here.

Test [1] addresses T1, hMC4R (Homo sapiens, UniProt P32245).
T1 construct: expressed in transfected cells; host or cells: HEK293
Nature of the test: Adenylate cyclase (cAMP) assay in transfected HEK293 cells. It counts as cell-based. The conditions noted are these: for Emax at 10 µM: HEK293, 0.05 h, hM4CR, percentage of cAMP produced at 10 μM in relation to MT-II, read-out: Act%. As to the method:
The cells were seeded on 96 well plates 48 hours before the assay, (100,000 cells/well). For the assay, the medium was removed and cells were rinsed with 1 mL of MEM buffer (GIBCO) or with Earle's balanced salt solution (EBSS, GIBCO). An aliquot (0.4 mL) of Earle's balanced salt solution was placed in each well along with isobutylmethylxanthine (IBMX; 5 μL; 0.5 mM) for 1 minute at 37° C. Varying concentrations of melanotropins (0.1 mL) were added and the cells incubated for 3 minutes at 37° C. The reaction was stopped by aspirating the buffer and adding ice-cold Tris/EDTA buffer to each well (0.15 mL). The 96 well plates were covered and placed on ice. After dislodging the cells, the plates were placed in a boiling water bath for 15 minutes. The cell lysate was then centrifuged for 10 minutes (4000 rpm), and 50 μL of the supernatant was aliquoted into perkinElmer glass fiber filter plate. cAMP content was measured by competitive binding assay in addition to 50 μL H^3 cAMP and 100 μL PKA. Then the system was placed on ice for 2 hours and then vacuum and filtered. 100 μL of the OptiPhase Supermix scintillation fluid was added to the plate. The plates stayed for 8 hours and then read by MicroBeta radiation plate reader. IC50 and EC50 values represent the mean of duplicate experiments performed in triplicate. […] NA indicates 0% cAMP accumulation observed at 10 μM. The peptides were tested over a range of concentrations from 10^-10 to 10^-5 M.

Test [2] addresses T2, hMC5R (Homo sapiens, UniProt P33032).
T2 construct: expressed in transfected cells; host or cells: HEK293
Briefly: Competitive receptor binding assay, whole HEK293 cells, 125I-NDP-α-MSH. The conditions noted are these: 40 min; hM5CR; percentage of NDP-α-MSH displacement at 10 μM; read-out: BE %. As to the method: [The procedure below names another target; the source lists this target under the same test.] (§1) Competition binding experiments were performed on whole cells. The transfected HEK293 cell line with hMC4Rs were seeded on 96 well plates, 48 hours before the assay, 100,000 cells/well. For the assay, the medium was removed and cells were washed twice with a freshly prepared binding buffer containing 100% minimum essential medium with Earle's salt (MEM, GIBCO), 25 mM HEPES (pH 7.4), 0.2% bovine serum albumin, 1 mM 1,10-phenanthroline, 0.5 mg/L leupeptin, and 200 mg/L bacitracin. […] The medium was subsequently removed and each well was washed twice with the assay buffer. The cells are lysed by the addition of 250 μL of 0.1 NaOH and 250 μL of 1% Triton X-100. […] Data were analyzed using Graphpad Prism 6.0 (Graphpad Software, San Diego, CA).
(§2) IC50 and EC50 values represent the mean of duplicate experiments performed in triplicate. IC50 and EC50 estimates and their associated standard errors were determined by fitting the data using nonlinear least-squares analysis, with the help of Graphpad Prism 6.0 (Graphpad Software, San Diego, CA).
(§3) NA indicates 0% cAMP accumulation observed at 10 μM. The peptides were tested over a range of concentrations from 10^-10 to 10^-5 M.

In test [3] the target is T1, hMC4R. Briefly: Adenylate cyclase (cAMP) assay in transfected HEK293 cells. The settings on record: hM4CR; 50% maximal intracellular cAMP accumulation, N=4. The class given is cell-based. On the technique in general: Changes in cAMP serve as a functional read-out for many G protein-coupled receptors.
The target in test [4] is T3, hMC1R (Homo sapiens, UniProt Q01726).
T3 construct: expressed in transfected cells; host or cells: HEK293
Nature of the test: Competitive receptor binding assay, whole HEK293 cells, 125I-NDP-α-MSH. The settings on record: for inhibition at 10 µM: 40 min, hM1CR, percentage of NDP-α-MSH displacement at 10 μM, read-out: BE %. As to the method: [The procedure below names another target; the source lists this target under the same test.] (§4) Competition binding experiments were performed on whole cells. The transfected HEK293 cell line with hMC4Rs were seeded on 96 well plates, 48 hours before the assay, 100,000 cells/well. For the assay, the medium was removed and cells were washed twice with a freshly prepared binding buffer containing 100% minimum essential medium with Earle's salt (MEM, GIBCO), 25 mM HEPES (pH 7.4), 0.2% bovine serum albumin, 1 mM 1,10-phenanthroline, 0.5 mg/L leupeptin, and 200 mg/L bacitracin. […] The medium was subsequently removed and each well was washed twice with the assay buffer. The cells are lysed by the addition of 250 μL of 0.1 NaOH and 250 μL of 1% Triton X-100. The lysed cell was transferred to the 12×75 mm glass tubes and the radioactivity was measured by Wallac 1470 WIZARD Gamma Counter. Data were analyzed using Graphpad Prism 6.0 (Graphpad Software, San Diego, CA).
as §2, §3

The target of test [5] is T4, hMC3R (Homo sapiens, UniProt P41968).
T4 construct: expressed in transfected cells; host or cells: HEK293
The test is described as above. The settings on record: 40 min; hM3CR; percentage of NDP-α-MSH displacement at 10 μM; read-out: BE %. As to the method:
[The procedure below names another target; the source lists this target under the same test.] as §4, §2, §3

Test [6] has as its target T3, hMC1R. Briefly: Adenylate cyclase (cAMP) assay in transfected HEK293 cells. The settings on record: HEK293, 0.05 h; hM1CR; cAMP at 10 μM in relation to MT-II; read-out: Act %. The class given is cell-based. As to the method:
(§5) HEK293 cells transfected with human melanocortin receptors were grown to confluence in MEM medium (GIBCO) containing 10% fetal bovine serum, 100 units/mL penicillin and streptomycin, and 1 mM sodium pyruvate. The cells were seeded on 96 well plates 48 hours before the assay, (100,000 cells/well). For the assay, the medium was removed and cells were rinsed with 1 mL of MEM buffer (GIBCO) or with Earle's balanced salt solution (EBSS, GIBCO). An aliquot (0.4 mL) of Earle's balanced salt solution was placed in each well along with isobutylmethylxanthine (IBMX; 5 μL; 0.5 mM) for 1 minute at 37° C. Varying concentrations of melanotropins (0.1 mL) were added and the cells incubated for 3 minutes at 37° C. The reaction was stopped by aspirating the buffer and adding ice-cold Tris/EDTA buffer to each well (0.15 mL). The 96 well plates were covered and placed on ice. After dislodging the cells, the plates were placed in a boiling water bath for 15 minutes. The cell lysate was then centrifuged for 10 minutes (4000 rpm), and 50 μL of the supernatant was aliquoted into perkinElmer glass fiber filter plate. cAMP content was measured by competitive binding assay in addition to 50 μL H^3 cAMP and 100 μL PKA. Then the system was placed on ice for 2 hours and then vacuum and filtered. 100 μL of the OptiPhase Supermix scintillation fluid was added to the plate. The plates stayed for 8 hours and then read by MicroBeta radiation plate reader.
as §2, §3

Test [7] deals with T2, hMC5R. The test is described as above. The class given is cell-based. The conditions noted are these: hM5CR; for Emax at 10 µM: HEK293, 0.05 h, cAMP at 10 μM in relation to MT-II, read-out: Act %. As to the method:
as §5, §2, §3

In test [8] the target is T4, hMC3R. Described as above. It counts as cell-based. The settings on record: hM3CR; for Emax at 10 µM: HEK293, 0.05 h, cAMP at 10 μM in relation to MT-II, read-out: Act %. As to the method: as §5, §2, §3
Test [9] deals with T1, hMC4R. Nature of the test: Competitive receptor binding assay, whole HEK293 cells, 125I-NDP-α-MSH. The conditions noted are these: for inhibition at 10 µM: 40 min, percentage of [125I]NDP-α-MSH displacement at 10 μM, read-out: BE%. As to the method:
as §1
IC50 and EC50 values represent the mean of duplicate experiments performed in triplicate. IC50 and EC50 estimates and their associated standard errors were determined by fitting the data using nonlinear least-squares analysis, with the help of Graphpad Prism 6.0 (Graphpad Software, San Diego, CA). […]

For test [10], the target named is T1, hMC4R. Briefly: Plasmon waveguide resonance (PWR) spectrum of hMC4R membranes with agonists.
From the text: PWR uses polarized light generated from a CW He—Ne laser (λ=632.8 nm or λ=543.5 nm), which passes through a glass prism under total internal reflection conditions. A thin metal film (Ag), which is deposited on the external surface of the prism, is overcoated with another thin layer of SiO2 as dielectric media. When there is an object attached to the dielectric layer of SiO2, and polarized laser forms a specific incident angle with the outer surface layer, the resonant excitation of collective electronic oscillations (plasmons) happens and generates an evanescent electromagnetic field localized at the dielectric film, which gives the absorption spectrum at that specific angle. This can be used to probe the optical properties of molecules immobilized on the outer surface of the prism. Resonance is achieved either by varying the laser light wavelength at a fixed angle or by varying the angle at a fixed laser wavelength(we used the latter one in this research). Any changes of the immobilized yield distinct incident angle that evanescence happens in the dielectric layer. Due to the ability that laser light can be polarized to either parallel (p) or perpendicular (s) to the incident plane, characterization of the molecular organization of anisotropic systems can be fulfilled, such as biomembranes containing integral proteins. Under the experimental conditions described herein, the optical parameters obtained with the p-polarization refer to the perpendicular direction, and those obtained with s-polarization refer to the parallel direction, relative to the bilayer membrane surface.
Resonance spectra in this study were obtained using a PWR instrument from Biopeptek Pharmaceuticals LLC. […] Recombinant HEK293 cells expressing the hMC4R were grown to confluency. The confluent cell monolayers were then washed with Ca^2+ and Mg^2+-deficient phosphate-buffered saline and were harvested in the same buffer containing 0.02% ethylenediaminetetraacetic acid (EDTA). After centrifugation at 1500 g for 10 minutes, the cells were homogenized in an ice-cold 10 mM Tris-HCl buffer and 1 mM EDTA (pH 7.4). A crude membrane fraction was collected by centrifugation at 40,000 g for 20 minutes at −4° C. and was stored at −80° C. until use. Before the PWR experiment, the membrane fraction was resuspended in a 20 mM Tris-HCl buffer (pH 7.4) by mild homogenization. Protein concentration was determined by using a Bradford assay.
Under the experimental conditions employed herein, the oscillation of light with p-polarization reflects the dimension of objects perpendicular to the membrane, and those obtained under the s-polarization vector refer to the dimension in parallel with the bilayer membrane surface.

Structures are written as SMILES. A value given as a limit tells only on which side of the number the result lay.

T4 sequence (P41968 whole entry): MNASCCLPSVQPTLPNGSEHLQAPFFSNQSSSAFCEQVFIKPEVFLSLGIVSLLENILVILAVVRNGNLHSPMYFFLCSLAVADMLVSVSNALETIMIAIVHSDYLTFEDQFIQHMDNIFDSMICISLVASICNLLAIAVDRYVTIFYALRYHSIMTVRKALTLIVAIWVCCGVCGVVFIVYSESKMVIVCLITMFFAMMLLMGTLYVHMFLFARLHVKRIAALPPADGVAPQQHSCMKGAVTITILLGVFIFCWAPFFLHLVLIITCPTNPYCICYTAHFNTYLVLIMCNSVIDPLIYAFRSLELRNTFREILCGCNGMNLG
T1 sequence (P32245 whole entry): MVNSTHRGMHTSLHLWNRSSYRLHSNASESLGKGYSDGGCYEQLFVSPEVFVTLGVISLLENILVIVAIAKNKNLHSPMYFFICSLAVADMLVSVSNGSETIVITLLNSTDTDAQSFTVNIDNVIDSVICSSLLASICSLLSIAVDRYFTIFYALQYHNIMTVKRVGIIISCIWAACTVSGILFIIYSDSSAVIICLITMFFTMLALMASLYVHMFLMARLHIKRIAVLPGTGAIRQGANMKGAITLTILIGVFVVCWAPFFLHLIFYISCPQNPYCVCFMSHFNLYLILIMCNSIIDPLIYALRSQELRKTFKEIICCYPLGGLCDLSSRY
T3 sequence (Q01726 whole entry): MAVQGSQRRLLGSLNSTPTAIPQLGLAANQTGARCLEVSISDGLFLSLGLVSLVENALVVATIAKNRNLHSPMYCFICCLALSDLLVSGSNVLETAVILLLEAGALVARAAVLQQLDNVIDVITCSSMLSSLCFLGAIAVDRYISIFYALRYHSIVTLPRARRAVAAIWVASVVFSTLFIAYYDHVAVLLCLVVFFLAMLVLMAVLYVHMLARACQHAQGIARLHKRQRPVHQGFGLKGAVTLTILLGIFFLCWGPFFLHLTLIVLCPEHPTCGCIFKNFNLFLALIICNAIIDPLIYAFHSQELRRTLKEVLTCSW
T2 sequence (P33032 whole entry): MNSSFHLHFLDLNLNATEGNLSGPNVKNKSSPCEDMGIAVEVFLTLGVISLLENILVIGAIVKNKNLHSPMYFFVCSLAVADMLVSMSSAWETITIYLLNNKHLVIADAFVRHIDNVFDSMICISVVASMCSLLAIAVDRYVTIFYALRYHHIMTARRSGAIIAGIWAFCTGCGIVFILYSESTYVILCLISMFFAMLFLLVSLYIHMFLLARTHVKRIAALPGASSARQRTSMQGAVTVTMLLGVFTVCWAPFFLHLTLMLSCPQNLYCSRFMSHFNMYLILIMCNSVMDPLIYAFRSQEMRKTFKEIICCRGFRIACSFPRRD

`CC(=O)N[C@@H](CCCNC(=N)N)C(=O)N[C@H]1CC(=O)NCCCC[C@@H](C(N)=O)NC(=O)C[C@H](Cc2c[nH]c3ccccc23)NC(=O)[C@H](CCCNC(=N)N)NC(=O)[C@@H](Cc2ccccc2)NC(=O)[C@@H]2CCCCN2C1=O` [compound 1, Ac-Arg-cyclo[Asp-Pip-D-Phe-Arg-BTrp-Lys]-NH2]: the Emax at 10 µM in test [1] stood at 63%; in test [6] it was 88%; in test [7], 95%; in [8] it was 88%. In addition, the inhibition at 10 µM came to 66% in [2], 100% in test [4], 60% in [5] and 0% in [9] (hM4CR). The EC50 (usually the concentration at which the effect is half-maximal) in test [3] was more than 1 µM.

In the case of `CC(=O)N[C@@H](CCCNC(=N)N)C(=O)N[C@H]1CC(=O)NCCCC[C@@H](C(N)=O)NC(=O)[C@H](Cc2c[nH]c3ccccc23)NC(=O)C[C@H](CCCNC(=N)N)NC(=O)[C@@H](Cc2ccc(F)cc2)NC(=O)[C@@H]2CCCCN2C1=O` [compound 5, Ac-Arg-cyclo[Asp-Pip-D-Phe(4-F)-βArg-Trp-Lys]-NH2], the Emax at 10 µM in [1] worked out at 84%; in [6], 100%; in test [7], 62%; in [8], 59%. Besides, the inhibition at 10 µM in [2] came to 0%; in [4], 100%; in [5] it was 100%; in test [9] (hM4CR), 23%. Also, the EC50 was more than 1 µM in test [3]; more than 1 µM in test [7] (cAMP accumulation, N=4); more than 1 µM in test [8] (cAMP accumulation, N=4). Besides, in test [9] (hM4CR, concentration of peptide at 50% specific binding, N=4), the IC50 (usually the concentration that inhibits the measured activity by half) was more than 1 µM.

As to `CC(=O)N[C@@H](CCCNC(=N)N)C(=O)N[C@H]1CC(=O)NCCCC[C@@H](C(N)=O)NC(=O)C[C@H](Cc2c[nH]c3ccccc23)NC(=O)C[C@H](CCCNC(=N)N)NC(=O)[C@@H](Cc2ccc(Cl)cc2)NC(=O)[C@@H]2CCCCN2C1=O` [compound 9, Ac-Arg-cyclo[Asp-Pip-D-Phe(4-Cl)-βArg-BTrp-Lys]-NH2], the Emax at 10 µM in [1] turned out to be 87%; in [6] it was 90%; in [7], 76%; in [8], 63%. Moreover, the “selectivity for hMC4R (in words)” value in test [1] (comparing the EC50 of a compound for each receptor) was “selective agonist of hMC4R”. For the same molecule, in test [10] (p-polarization, hMC4R sole 26.44), the “PWR peak location under p-polarization” value is reported as 26.95. Further, the “PWR shift under s-polarization (in words)” value in test [10] (s-polarization) is recorded as “no significant change”. In addition, the inhibition at 10 µM amounted to 75% in test [2], 100% in test [4], 10% in test [5] and 100% in test [9] (hM4CR). In addition, in test [4] (compared with the other analogues), the “hMC1R binding affinity (in words)” value was “lower binding affinities than the others”. The “times higher in binding affinity to hMC4R than hMC1R” value in test [9] (hMC4R vs hMC1R) was “about 68 times”. Besides, the “times higher in binding affinity to hMC4R than hMC3R” value in test [9] (hMC4R vs hMC3R) is “over 1000 times”. The “times higher in binding affinity to hMC4R than hMC5R” value in test [9] (hMC4R vs hMC5R) is “over 1000 times”.
